Data as given in patent publication US8771973B2, “Methods for treating bleeding disorders using sulfated polysaccharides” (Baxter Healthcare S.A., priority 2004, dated 2014).
“Also recorded” adds a separate entry of the source.

Key:
Hem-A plasma [1] = assay: dPT assay, anti-coagulant activity of NASPs in Hem-A plasma; format: biochemical, human; conditions: for clotting time, dPT: Hem-A plasma without NASP 41.5 seconds; for inherent anticoagulant activity: concentrations up to 5000 nM; for prolongation of clotting time: concentrations>5000 nM
Protocol: (§1) The dPT assay used was a modified standard clinical PT assay (Nordfang et al. (1991) Thromb Haemost 66:464-467; Welsch et al. (1991) Thrombosis Research 64: 213-222). SIMPLASTIN EXCEL thromboplastin reagent (Organon Teknika) was reconstituted with the manufacturer's diluent and further diluted 1:100 in 0.9% saline. The thromboplastin reagent, 25 mM CaCl2, and plasma samples were pre-warmed to 37° C. before initiating the assay. 100 μl of thawed plasma was aliquoted into microcentrifuge tubes. […] 100 μl of the diluted thromboplastin reagent and 100 μl of 25 mM CaCl2 were added to fibrin cups (Fisher) prewarmed to 37° C. 100 μl of plasma (normal or hemophilic) containing the test agent or saline control was added to the fibrin cups containing the thromboplastin reagent and CaCl2 to initiate clotting. The time for plasma clotting was measured with a BBL FIBROSYSTEM fibrometer.
Test compounds were diluted to 100 μM, 10 μM, 2 μM and 200 nM. For each test compound, 12.5 μl of a diluted solution containing the test compound was added to 237.5 μl of Hem-A plasma and incubated at room temperature. 100 μl of plasma containing the test compound was removed for dPT assays of plasma clotting time as described in Example 2.

TFPI [2] = target: T1, TFPI (Homo sapiens, UniProt P10646); assay: dPT assay, inhibition of TFPI activity in Hem-A plasma, TFPI preincubated with NASP; format: biochemical; conditions: for TFPI-neutralizing activity: FIGS. 4-6 / data not shown; for clotting time, dPT: Hem-A + TFPI, plasma alone 44, + TFPI 151 seconds
T1 construct: purchased American Diagnostica (Stamford, Conn.)
T1 sequence (P10646 29-304): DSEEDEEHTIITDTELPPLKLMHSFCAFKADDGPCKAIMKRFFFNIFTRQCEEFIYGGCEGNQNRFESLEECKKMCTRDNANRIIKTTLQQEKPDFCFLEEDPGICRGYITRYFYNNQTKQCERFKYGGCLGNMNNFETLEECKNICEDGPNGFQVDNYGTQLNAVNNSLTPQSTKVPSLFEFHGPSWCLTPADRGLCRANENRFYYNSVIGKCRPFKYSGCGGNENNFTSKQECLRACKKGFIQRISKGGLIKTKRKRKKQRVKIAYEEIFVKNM
Protocol: as §1
(§2) Inhibition of TFPI activity by NASPs was assessed in dPT clotting assays with normal or hemophilic plasma and added recombinant TFPI. Diluted recombinant TFPI was preincubated with NASPs for 5 minutes at room temperature before plasma was added. After addition of plasma, the mixture was incubated for an additional 25 minutes followed by dPT initiation.

Hem-A plasma [3] = assay: dPT assay, Hem-A plasma in absence of exogenous TFPI; format: biochemical, human; conditions: dPT
Protocol: as §1
The ability of NASPs to accelerate clotting of factor-deficient plasma in the absence of TFPI supplementation was also tested in dPT assays. A procoagulant response, if observed, may be related to neutralization of endogenous TFPI activity, which is present in human plasma at approximately 100 ng/ml (Nordfang et al., supra), largely associated with lipoprotein or platelets (Broze et al. (1992) Semin. Hematol. 29:159-169; Broze et al. (2003) J. Thromb. Haemost. 1:1671-1675).
The ability of NASPs to accelerate clotting of Hem-A plasma in the absence of exogenous TFPI was tested. Fucoidan or PPS were titrated into Hem A plasma and dPT assays were performed. Additionally, the dose-response to factor VIIa was analyzed as a positive control for amplifying extrinsic pathway activation.

[4] = system: Hem-A plasma containing 1.25% FACT plasma; assay: aPTT assay, NASPs in 1.25% FACT diluted in Hem-A plasma; format: biochemical, human
Protocol: Activated Partial Thromboplastin Time (aPTT) Assay The aPTT assay was performed as described previously with modifications (PDR Staff Physicians' Desk Reference. 2004, Anderson Lo, Barrowcliffe, T. W., Holmer, E., Johnson, E. A., Sims, G. E. C. Thromb. Res. 1976; 9:575-580). 25 mM CaCl2 and fibrin cups (Fisher) were pre-warmed to 37° C. 0.1 ml of thawed human plasma (normal or hemophilic) was added to warmed test tubes. 5 μl of saline (e.g. Sigma) or 5 μl of test agent (e.g., NASP) dissolved in saline was incubated with 95 μl of plasma for 30 minutes at room temperature. APTT reagent (e.g. Organon Teknika) was reconstituted in 3 ml distilled water and 0.1 ml of the reconstituted solution containing the APTT reagent was added to each test tube. 0.2 ml of plasma containing the test agent or saline control and aPTT reagent were transferred from test tubes to pre-warmed fibrin cups and incubated for 2-3 minutes. 0.1 ml of pre-warmed 25 mM CaCl2 was added to initiate clotting, and the time for plasma clotting was measured with a BBL FIBROSYSTEM fibrometer.
The effect of NASPs on the clotting time of plasma was determined as follows: 5 μl of a NASP was added to 95 μl of 1.25% FACT diluted in human Hem-A plasma and incubated at room temperature for 30 minutes. aPTT assays were performed to determine plasma clotting time as described in Example 1.

TFPI [5] = target: T1, TFPI; assay: dPT assay, inhibition of TFPI activity in Hem-B plasma, TFPI preincubated with NASP; format: biochemical; conditions: for clotting time, dPT: Hem-B + TFPI, plasma alone 46, + TFPI 101 seconds
Protocol: as §1, §2
The acceleration of plasma clotting by the NASPs in the presence of TFPI was also tested in Hem-B and normal plasma.

TFPI [6] = target: T1, TFPI; assay: dPT assay, inhibition of TFPI activity in Hem-A plasma without preincubation; format: biochemical; conditions: for clotting time, dPT: Hem-A + TFPI, no preincubation, HemA + TFPI 183, alone 45 seconds
Protocol: as §1
Experiments were repeated without a preincubation of the sulfated polysaccharides with TFPI prior to exposure to plasma. To extend the stringency of the test for NASP inhibition of TFPI activity, TFPI was added to the plasma before the NASP was added.

Hem-A plasma [7] = assay: dPT assay, TFPI titrated into FVIII deficient (Hem-A) plasma; format: biochemical, human
Protocol: as §1
A 100 μg/mL TFPI stock solution (American Diagnostica, Stamford, Conn.) was sequentially diluted in saline to generate TFPI solutions at the following concentrations: 20, 15, 10, 6, and 2 μg/mL. 5 μl of these TFPI dilutions were mixed with 95 μl of FVIII deficient plasma and incubated at room temperature for 30 minutes. dPT assays were performed as follows: SIMPLASTIN thromboplastin was diluted 1:100 in saline and prewarmed to 37° C. 25 mM CaCl2 and 100 μl of test plasma containing TFPI was prewarmed to 37° C. 100 μl SIMPLASTIN thromboplastin and 100 μl of CaCl2 were mixed and clotting time was measured using a BBL fibrometer.

In the case of “De-N-Sulfated-Acetylated-Heparin [De-N—S-AH]”, the “clotting time, dPT” value (Hem-A plasma [1]; 10 nM) is reported as 39 s, the “clotting time, dPT” value (Hem-A plasma [1]; 100 nM) is reported as 37 s and the “clotting time, dPT” value (Hem-A plasma [1]; 500 nM) is reported as 40 s. For the same substance, the “clotting time, dPT” value (Hem-A plasma [1]; 5000 nM) was 55 s, the inherent anticoagulant activity (Hem-A plasma [1]) was “failed to show inherent anticoagulant activity” and the TFPI-neutralizing activity (TFPI [2]; dPT) was “did not exhibit any TFPI-neutralizing activity”. The “acceleration of hemophilic plasma clotting in the absence of TFPI addition” value (“acceleration” for short) (Hem-A plasma [3]) was “failed to accelerate clotting times”.
De-N-Sulfated-Heparin [De-N-SH] was tested, and the “clotting time, dPT” value (Hem-A plasma [1]; 10 nM) was 40 s, the “clotting time, dPT” value (Hem-A plasma [1]; 100 nM) was 38 s and the “clotting time, dPT” value (Hem-A plasma [1]; 500 nM) was 38 s. The “clotting time, dPT” value (Hem-A plasma [1]; 5000 nM) was 41 s, the inherent anticoagulant activity (Hem-A plasma [1]) was “failed to show inherent anticoagulant activity” and the “prolongation of clotting time” value (Hem-A plasma [1]; dPT) was “little or no prolongation of clotting time”. The TFPI-neutralizing activity (TFPI [2]; dPT) was “did not exhibit any TFPI-neutralizing activity” and the “acceleration” value (Hem-A plasma [3]) was “failed to accelerate clotting times”.
With N-Acetyl-Heparin [NAH] the “clotting time, dPT” value (Hem-A plasma [1]; 10 nM) was 38 s, the “clotting time, dPT” value (Hem-A plasma [1]; 100 nM) was 37 s and the “clotting time, dPT” value (Hem-A plasma [1]; 500 nM) was 36 s. The “clotting time, dPT” value (Hem-A plasma [1]; 5000 nM) was 38 s, the “prolongation of clotting time” value (Hem-A plasma [1]; dPT) was “little or no prolongation of clotting time” and the “clotting time, aPTT” value ([4]; 0.8 nM) was 70 s. For the same substance, the “clotting time, aPTT” value ([4]; 4 nM) was 69 s, the “clotting time, aPTT” value ([4]; 20 nM) was 67 s and the “clotting time, aPTT” value ([4]; 100 nM) was 74 s. The “clotting time, aPTT” value ([4]; 500 nM) was 85 s, the “concentration producing approximately 50% prolongation in clotting time, fold higher than for heparin” value ([4]; APTT, Hem-A plasma) was > 500 fold and the “clotting time, dPT” value (TFPI [2]; 0.16 nM, preincubation) was 144 s. For the same substance, the “clotting time, dPT” value (TFPI [2]; 0.8 nM, preincubation) was 158 s, the “clotting time, dPT” value (TFPI [2]; 4 nM, preincubation) was 160 s and the “clotting time, dPT” value (TFPI [2]; 20 nM, preincubation) was 141 s. For the same substance, the “clotting time, dPT” value (TFPI [2]; 100 nM, preincubation) was 99 s, the “clotting time, dPT” value (TFPI [2]; 500 nM, preincubation) was 84 s and the TFPI-neutralizing activity (TFPI [2]; dPT) was “only weak TFPI-neutralizing activity”. For the same substance, the “concentration that accelerates (shortens) clotting of Hem-A plasma containing TFPI” value (TFPI [2]; dPT, preincubation) was “approximately 100 nM”, the “clotting time, dPT” value (TFPI [5]; 0.16 nM) was 102 s and the “clotting time, dPT” value (TFPI [5]; 0.8 nM) was 101 s. The “clotting time, dPT” value (TFPI [5]; 4 nM) was 106 s, the “clotting time, dPT” value (TFPI [5]; 20 nM) was 106 s and the “clotting time, dPT” value (TFPI [5]; 100 nM) was 94 s. For the same substance, the “clotting time, dPT” value (TFPI [5]; 500 nM) was 68 s, the “clotting time, dPT” value (TFPI [6]; 0.8 nM) was 165 s and the “clotting time, dPT” value (TFPI [6]; 4 nM) was 180 s. The “clotting time, dPT” value (TFPI [6]; 20 nM) was 184 s, the “clotting time, dPT” value (TFPI [6]; 100 nM) was 125 s and the “clotting time, dPT” value (TFPI [6]; 500 nM) was 89 s. For the same substance, the “acceleration” value (Hem-A plasma [3]) was “had no activity; also recorded: did not accelerate hemophilic plasma clotting times”.
With “N-Acetyl-de-O-Sulfated-Heparin [NA-de-O-SH]” the “clotting time, dPT” value (Hem-A plasma [1]; 10 nM) was 40 s, the “clotting time, dPT” value (Hem-A plasma [1]; 100 nM) was 40 s and the “clotting time, dPT” value (Hem-A plasma [1]; 500 nM) was 40 s. The “clotting time, dPT” value (Hem-A plasma [1]; 5000 nM) was 40 s, the inherent anticoagulant activity (Hem-A plasma [1]) was “failed to show inherent anticoagulant activity” and the “prolongation of clotting time” value (Hem-A plasma [1]; dPT) was “little or no prolongation of clotting time”. For the same substance, the TFPI-neutralizing activity (TFPI [2]; dPT) was “did not exhibit any TFPI-neutralizing activity” and the “acceleration” value (Hem-A plasma [3]) was “failed to accelerate clotting times”.
In the case of Sodium Heparin, the “clotting time, dPT” value (Hem-A plasma [1]; 10 nM) is reported as 40 s, the “clotting time, dPT” value (Hem-A plasma [1]; 100 nM) is reported as 92 s and the “clotting time, dPT” value (Hem-A plasma [1]; 500 nM) is reported as 400 s. For the same substance, the anticoagulant activity (Hem-A plasma [1]; dPT, concentrations exceeding 10 nM) was “markedly anticoagulant”, the “clotting time, aPTT” value ([4]; 0.8 nM) was 70 s and the “clotting time, aPTT” value ([4]; 4 nM) was 70 s. For the same substance, the “clotting time, aPTT” value ([4]; 20 nM) was 200 s, the “clotting time, aPTT” value ([4]; 100 nM) was “Not clotted” and the “clotting time, aPTT” value ([4]; 500 nM) was “Not clotted”. The “effect on clotting time of Hem-A plasma containing TFPI” value (TFPI [2]; dPT, not shown) was “only prolonged clotting times”.
For “TFPI: human recombinant TFPI from American Diagnostica”, the Clotting time (Hem-A plasma [7]; TFPI 0.1 μg/mL in plasma) was 60 s, the Clotting time (Hem-A plasma [7]; TFPI 0.3 μg/mL in plasma) was 94 s and the Clotting time (Hem-A plasma [7]; TFPI 0.5 μg/mL in plasma) was 98 s. For the same substance, the Clotting time (Hem-A plasma [7]; TFPI 0.75 μg/mL in plasma) was 173 s, the Clotting time (Hem-A plasma [7]; TFPI 1 μg/mL in plasma) was >200 s and the “clotting time of plasma with TFPI” value (TFPI [2]; TFPI approximately 0.5 μg/ml, from approximately 40 seconds, depending on experiment and source of plasma) was 100 to 200 s. The “Clotting time of Hem-A plasma + TFPI” value (TFPI [2]; no NASP, TFPI approximately 0.5 μg/ml, plasma alone 44 seconds) was “Clotting time of Hem-A plasma + TFPI is 151 seconds”, the “Clotting time of Hem-B + TFPI” value (TFPI [5]; no NASP, Hem-B alone 46 seconds) was “Clotting time of Hem-B + TFPI: 101 seconds” and the “Clotting time HemA + TFPI” value (TFPI [6]; no NASP, Hem-A alone 45 seconds) was “HemA + TFPI: 183 seconds”.
